Assay results from patent US20240368120A1 (Terns Pharmaceuticals, Inc., priority 2023, published 2024).
pEC50: −log10 of the molar value.

How the values were obtained:
[1] = Rat pharmacokinetics, oral dosing; assay type: in vivo, Sprague-Dawley rats; conditions: male, Sprague-Dawley, oral dosing at 3 mg/kg, plasma; for half-life: read-out: Rat T1/2
Description: Intravenous dosing: Compounds were formulated at 1.0 mg/mL in a solution comprising 5% polyethylene glycol 400 and 95% (12% (w/v) sulfobutyl-β-cyclodextrin in water) (v/v). Formulated compounds were sterile filtered through a 0.22 micron filter before dosing. Compounds were administered to male, 7-11-week-old Sprague-Dawley rats by jugular vein cannula infusion over 30 minutes at a dose of 1 mg/kg. Oral dosing: Compounds were formulated at 1.0 mg/mL in a solution comprising 5% polyethylene glycol 400 and 95% (12% (w/v) sulfobutyl-β-cyclodextrin in water) (v/v). Formulated compounds were administered to male, 7-11 week old Sprague-Dawley rats by oral gavage at a dose of 10 mg/kg or 3 mg/kg.
Sample collection: Blood collections of about 0.2 mL per time point were performed from jugular vein or other suitable site of each animal, into pre-chilled commercial EDTA-K2 tubes and placed on wet ice until centrifugation. Blood samples were processed for plasma by centrifugation at approximately 4° C., 3,200 g for 10 min. Plasma was collected and transferred into pre-labeled 96 well plate or polypropylene tubes, quick frozen over dry ice and kept at −60° C. or lower until
Data analysis: Plasma concentration versus time data was plotted in graph and analyzed by non-compartmental approaches using the Phoenix WinNonlin 6.3 software program. Related PK parameters were calculated according to dosing route, e.g., CL, Vdss and C0 for intravenous administration, Cmax, Tmax or % F for extravascular administration, and T1/2, AUC(0-t), AUC(0-inf), MRT(0-t), MRT(0-inf) for all routes.

human GLP-1R receptor = target: T1, human GLP-1R receptor (Homo sapiens, UniProt P43220); assay: GLP-1R low expression cell assay (cAMP TR-FRET, CHO-K1_hGLP-1Rlow_clone10 cells); assay type: cell-based; conditions: for pEC50: cAMP TR-FRET, 30 min at 25° C.; for Emax: maximum activation relative to control GLP-1 peptide agonist
T1 construct: expressed in transfected cells
Outline: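 Readout is cAMP TR-FRET after 30 min compound stimulation at 25 °C of a low-GLP-1R-expressing CHO-K1 clone (1,000 cells/well), with 10-point 3-fold serial dilutions. Percent activation versus a control GLP-1 peptide, from duplicates, was Hill-fitted to give EC50.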

T1 sequence (P43220 24-463): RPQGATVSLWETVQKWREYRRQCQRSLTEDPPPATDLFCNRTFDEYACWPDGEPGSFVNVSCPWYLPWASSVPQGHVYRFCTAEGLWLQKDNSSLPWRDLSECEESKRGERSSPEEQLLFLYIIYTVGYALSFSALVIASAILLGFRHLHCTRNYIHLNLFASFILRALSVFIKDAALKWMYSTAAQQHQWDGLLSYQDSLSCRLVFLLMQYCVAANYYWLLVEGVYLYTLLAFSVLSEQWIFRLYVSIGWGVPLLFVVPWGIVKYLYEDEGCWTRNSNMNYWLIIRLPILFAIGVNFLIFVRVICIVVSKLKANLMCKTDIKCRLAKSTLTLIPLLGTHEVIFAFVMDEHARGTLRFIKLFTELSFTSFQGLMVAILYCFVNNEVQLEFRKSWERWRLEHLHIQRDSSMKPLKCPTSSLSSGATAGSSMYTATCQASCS

Compound | AUC [1] [ng·h/mL] | Cmax [1] [ng/mL] | half-life [1] [h] | bioavailability [1] [%] | pEC50 (human GLP-1R receptor) | Emax (human GLP-1R receptor) [%]
Cn1c(CN2CCC(c3cccc(OCc4ccc(C#N)cc4F)n3)CC2)nc2c(OCF)cc(C(=O)O)cc21 [Compound 113, 2-((4-(6-((4-Cyano-2-fluorobenzyl)oxy)pyridin-2-yl)piperidin-1-yl)methyl)-4-(fluoromethoxy)-1-methyl-1H-benzo[d]imidazole-6-carboxylic acid] | 500 to 2500 | 1000 to 2000 | 1.5 to 2.5 | 50 to 85 | > 8.00 | > 85
C[C@]1(c2ccc(Cl)cn2)Oc2cccc(C3CCN(Cc4nc5c(OC6CC6)cc(C(=O)O)cc5n4Cc4cncs4)CC3)c2O1 [Compound 6, (S)-2-((4-(2-(5-chloropyridin-2-yl)-2-methylbenzo[d][1,3]dioxol-4-yl)piperidin-1-yl)methyl)-4-cyclopropoxy-1-(thiazol-5-ylmethyl)-1H-benzo[d]imidazole-6-carboxylic acid] | < 500 | < 500 | 1.5 to 2.5 | 25 to 50 | > 8.00 | > 85
COc1cc(C(F)(F)F)ccc1COc1cccc(C2CCN(Cc3nc4c(OC(F)F)cc(C(=O)O)cc4n3C)CC2)n1 [Compound 154, 4-(Difluoromethoxy)-2-((4-(6-((2-methoxy-4-(trifluoromethyl)benzyl)oxy)pyridin-2-yl)piperidin-1-yl)methyl)-1-methyl-1H-benzo[d]imidazole-6-carboxylic acid] | – | > 5000 | 1.5 to 2.5 | 50 to 85 | > 8.00 | > 85
Cn1c(CN2CCC(c3cccc(OCc4ccc(Cl)c5ccoc45)n3)CC2)nc2c(OC(F)F)cc(C(=O)O)cc21 [Compound 237, 2-((4-(6-((4-Chlorobenzofuran-7-yl)methoxy)pyridin-2-yl)piperidin-1-yl)methyl)-4-(difluoromethoxy)-1-methyl-1H-benzo[d]imidazole-6-carboxylic acid] | – | 2000 to 5000 | 1.5 to 2.5 | 50 to 85 | > 8.00 | > 85
Cn1c(N(C)[C@H]2CC[C@H](c3cccc(OCc4ccc(C#N)cc4F)n3)CC2)nc2c(OC(F)F)cc(C(=O)O)cc21 [Compound 133, 2-(((1r,4r)-4-(6-((4-Cyano-2-fluorobenzyl)oxy)pyridin-2-yl)cyclohexyl)(methyl)amino)-4-(difluoromethoxy)-1-methyl-1H-benzo[d]imidazole-6-carboxylic acid] | 500 to 2500 | 500 to 1000 | 1.5 to 2.5 | 25 to 50 | > 8.00 | > 85
Cn1c(CN2CCC(c3cccc4c3OC(c3ccc(Cl)cc3F)C=C4)CC2)nc2c(OC(F)F)cc(C(=O)O)cc21 (single isomer, unassigned) [Compound 176] | 500 to 2500 | < 500 | < 1.5 | 25 to 50 | 6.00 to 7.00 | –
CCOc1cc(C(=O)O)cc2c1nc(Cc1ccc(-c3cccc(OCc4ccc(C#N)cc4F)n3)cc1F)n2C [Compound 293, 2-(4-(6-((4-Cyano-2-fluorobenzyl)oxy)pyridin-2-yl)-2-fluorobenzyl)-4-ethoxy-1-methyl-1H-benzo[d]imidazole-6-carboxylic acid] | – | – | – | – | > 8.00 | > 85
Cn1c(CN2CCC(c3cccc(N4CCc5cc(C#N)cc(F)c5C4)n3)CC2)nc2c(OC(F)F)cc(C(=O)O)cc21 [Compound 151, 2-((4-(6-(6-Cyano-8-fluoro-3,4-dihydroisoquinolin-2(1H)-yl)pyridin-2-yl)piperidin-1-yl)methyl)-4-(difluoromethoxy)-1-methyl-1H-benzo[d]imidazole-6-carboxylic acid] | – | – | – | – | 6.00 to 7.00 | > 85
Cn1c(N[C@H]2CC[C@H](c3cccc(OCc4ccc(Cl)cc4F)n3)CC2)nc2c(OC(F)F)cc(C(=O)O)cc21 [Compound 371, 2-(((1r,4r)-4-(6-((4-Chloro-2-fluorobenzyl)oxy)pyridin-2-yl)cyclohexyl)amino)-4-(difluoromethoxy)-1-methyl-1H-benzo[d]imidazole-6-carboxylic acid] | – | – | – | – | < 6.00 | > 85
CNC(=O)c1cc(OC)c2nc(CN3CCC(c4cccc(OCc5ccc(Cl)cc5F)n4)CC3)n(C)c2c1 [Compound 280, 2-((4-(6-((4-chloro-2-fluorobenzyl)oxy)pyridin-2-yl)piperidin-1-yl)methyl)-4-methoxy-N, 1-dimethyl-1H-benzo[d]imidazole-6-carboxamide] | – | – | – | – | < 6.00 | 50 to 85
COc1cc(C(=O)O)cc2c1nc(CN1CCC(c3cccc(OCc4ccc(C#N)c5c4OCC5)n3)CC1)n2C [Compound 283, 2-((4-(6-((4-Cyano-2,3-dihydrobenzofuran-7-yl)methoxy)pyridin-2-yl)piperidin-1-yl)methyl)-4-methoxy-1-methyl-1H-benzo[d]imidazole-6-carboxylic acid] | – | – | – | – | > 8.00 | > 85
Cn1c(CN2CCC(c3cccc(OCc4ccc(Cl)cc4F)n3)CC2)nc2c(OC(F)(F)CF)cc(C(=O)O)cc21 [Compound 235, 2-((4-(6-((4-Chloro-2-fluorobenzyl)oxy)pyridin-2-yl)piperidin-1-yl)methyl)-1-methyl-4-(1,1,2-trifluoroethoxy)-1H-benzo[d]imidazole-6-carboxylic acid] | – | – | – | – | 7.00 to 8.00 | > 85
Cn1c(CN2CCC(c3cccc(OCc4ccc(Cl)cc4F)n3)CC2)nc2c(OC(F)F)c(C(=O)O)ccc21 [Compound 220, 2-((4-(6-((4-Chloro-2-fluorobenzyl)oxy)pyridin-2-yl)piperidin-1-yl)methyl)-4-(difluoromethoxy)-1-methyl-1H-benzo[d]imidazole-5-carboxylic acid] | – | – | – | – | < 6.00 | > 85
Cn1c(CN2CCC(Oc3cccc(COc4ccc(C#N)cc4F)n3)CC2)nc2c(OC(F)F)cc(C(=O)O)cc21 [Compound 149, 2-((4-((6-((4-Cyano-2-fluorophenoxy)methyl)pyridin-2-yl)oxy)piperidin-1-yl)methyl)-4-(difluoromethoxy)-1-methyl-1H-benzo[d]imidazole-6-carboxylic acid] | – | – | – | – | 7.00 to 8.00 | > 85
COc1cc(C(=O)O)c(F)c2c1nc(CN1CCC(c3ccc(F)c(OCc4ccc(C#N)cc4F)c3)CC1)n2C [Compound 339, 2-((4-(3-((4-Cyano-2-fluorobenzyl)oxy)-4-fluorophenyl)piperidin-1-yl)methyl)-7-fluoro-4-methoxy-1-methyl-1H-benzo[d]imidazole-6-carboxylic acid] | – | – | – | – | 6.00 to 7.00 | > 85
Cn1c(CN2CCC(c3nc(OCc4ccc(Cl)cc4F)ncc3F)CC2)nc2c(OC(F)F)cc(C(=O)O)cc21 [Compound 375, 2-((4-(2-((4-Chloro-2-fluorobenzyl)oxy)-5-fluoropyrimidin-4-yl)piperidin-1-yl)methyl)-4-(difluoromethoxy)-1-methyl-1H-benzo[d]imidazole-6-carboxylic acid] | – | – | – | – | 6.00 to 7.00 | > 85
Cn1c(CN2CCC(c3cccc4c3O[C@H](c3ccc(Cl)cc3F)CO4)CC2)nc2c(OC(F)F)cc(C(=O)O)cc21 [Compound 335, (R)-2-((4-(3-(4-Chloro-2-fluorophenyl)-2,3-dihydrobenzo[b][1,4]dioxin-5-yl)piperidin-1-yl)methyl)-4-(difluoromethoxy)-1-methyl-1H-benzo[d]imidazole-6-carboxylic acid] | – | – | – | – | < 6.00 | 50 to 85
CCCOc1cc(C(=O)O)cc2c1nc(CN1CCC(c3cccc(OCc4ccc(C#N)cc4F)n3)CC1)n2C [Compound 319, 2-((4-(6-((4-Cyano-2-fluorobenzyl)oxy)pyridin-2-yl)piperidin-1-yl)methyl)-1-methyl-4-propoxy-1H-benzo[d]imidazole-6-carboxylic acid] | – | – | – | – | 7.00 to 8.00 | > 85
Cn1c(CN2CCC(c3cccc(OCc4ccc(F)cc4)n3)CC2)nc2c(OC(F)F)cc(C(=O)O)cc21 [Compound 254, 4-(Difluoromethoxy)-2-((4-(6-((4-fluorobenzyl)oxy)pyridin-2-yl)piperidin-1-yl)methyl)-1-methyl-1H-benzo[d]imidazole-6-carboxylic acid] | – | – | – | – | 6.00 to 7.00 | –
COCCOc1cc(C(=O)O)cc2nc(CN3CCC(c4cccc5c4O[C@@](C)(c4ccc(Cl)cn4)O5)CC3)n(C)c12 [Compound 76, (S)-2-((4-(2-(5-Chloropyridin-2-yl)-2-methylbenzo[d][1,3]dioxol-4-yl)piperidin-1-yl)methyl)-7-(2-methoxyethoxy)-1-methyl-1H-benzo[d]imidazole-5-carboxylic acid] | – | – | – | – | < 6.00 | 50 to 85
